# Experimental data reported in patent US12370182B2, “Bicyclic derivatives as GABAA A5 receptor modulators” (RICHTER GEDEON NYRT., priority 2018, dated 2025).
# Molecular target: human recombinant GABAA α5β3γ2 receptor (Homo sapiens (Human), UniProt P18507+P31644)
# Test: Binding assay, [3H]Ro151788 displacement on membranes of HEK cells
# Conditions: 0.5 nM [3H]Ro151788, 60 minutes at 4° C., Cheng-Prusoff; read-out: hGABAA α5 Ki
# Description: The GABAA α5β3γ2 protein used for the receptor binding assay was derived from membranes produced from HEK cells (Millipore CYL3073) expressing the human recombinant GABAA α5β3γ2 receptor. Cells were stored and cultured in-house according to the instructions provided by the vendor (Millipor). Cell pellet was homogenized in 10 times modified Krebs Henseleit buffer (membrane preparation buffer): 20 mM Tris, 120 mM NaCl, 100 mM KCl, 25 mM CaCl2) and 25 mM MgCl2 pH=7.4 at 4° C. using Ultra Turrax (Janke&Kunkel) maximal speed for 15 seconds. The homogenate was centrifuged at 40,000 g for 30 minutes at 4° C. Supernatant was discarded and the resulting pellet was washed in membrane preparation buffer. Pellet was resuspended in membrane preparation buffer and aliquots of 1.4 mL ampulles were stored at −70° C. until use.
# Receptor binding assays were performed in 96-well format in deep-well plates. For each 96-well plate one ampulle of membrane homogenate was thawed and diluted in binding buffer (50 mM Tris pH=7.4, 100 mM KCl) and 200 μL was dispensed into each well. Radioligand [^3H]Ro151788 (Perkin Elmer: NET757250UC) was prepared in binding buffer and added to each well in 50 μL volume to give final concentration of 0.5 nM. Test compounds in suitable concentration(s) were added in additional 50 μL. The final assay volume was 300 μL. Incubation was carried out for 60 minutes at 4° C. For non-specific binding 10 μM unlabeled diazepam was used. After incubation samples were filtered over UniFilter® GF/B™ using Filtermate Harvester (Perkin Elmer) and washed with 5×1 mL binding buffer. The plate was dried at 40° C. for an hour and 40 μL Microscint (Perkin Elmer) scintillation cocktail was added to each well. The plate was read in Microbeta (Perkin Elmer).
# The specific radioligand binding (SB) was defined as the difference between total binding (Tot) and the non-specific binding (NSB). Results are expressed as a percent inhibition of specific binding obtained in the presence of compound of interest.
# For IC50 and Ki determination a minimum of six drug concentrations in triplicate were used. […] Ki values (i.e. inhibition constants) were calculated using the Cheng-Prusoff equation Ki=IC50/[1+(L/KD)], where [L] is the radioligand concentration and KD the affinity of the labelled ligand for receptor. KD was determined from the Saturation analyses.
# human recombinant GABAA α5β3γ2 receptor, sequence (P31644 32-462): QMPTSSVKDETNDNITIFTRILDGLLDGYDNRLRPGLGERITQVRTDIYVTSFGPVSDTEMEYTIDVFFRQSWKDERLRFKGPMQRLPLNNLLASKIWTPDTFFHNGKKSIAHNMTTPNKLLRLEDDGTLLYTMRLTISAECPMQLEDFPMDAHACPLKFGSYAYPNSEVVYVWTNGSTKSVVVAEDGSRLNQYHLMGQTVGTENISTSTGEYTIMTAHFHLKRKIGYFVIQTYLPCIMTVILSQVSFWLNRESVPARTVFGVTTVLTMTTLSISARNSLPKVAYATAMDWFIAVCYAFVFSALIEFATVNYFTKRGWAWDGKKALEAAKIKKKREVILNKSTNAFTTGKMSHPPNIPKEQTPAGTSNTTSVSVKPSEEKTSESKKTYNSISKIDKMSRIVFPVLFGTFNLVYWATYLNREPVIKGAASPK
# human recombinant GABAA α5β3γ2 receptor, sequence (P28472 26-473 partner): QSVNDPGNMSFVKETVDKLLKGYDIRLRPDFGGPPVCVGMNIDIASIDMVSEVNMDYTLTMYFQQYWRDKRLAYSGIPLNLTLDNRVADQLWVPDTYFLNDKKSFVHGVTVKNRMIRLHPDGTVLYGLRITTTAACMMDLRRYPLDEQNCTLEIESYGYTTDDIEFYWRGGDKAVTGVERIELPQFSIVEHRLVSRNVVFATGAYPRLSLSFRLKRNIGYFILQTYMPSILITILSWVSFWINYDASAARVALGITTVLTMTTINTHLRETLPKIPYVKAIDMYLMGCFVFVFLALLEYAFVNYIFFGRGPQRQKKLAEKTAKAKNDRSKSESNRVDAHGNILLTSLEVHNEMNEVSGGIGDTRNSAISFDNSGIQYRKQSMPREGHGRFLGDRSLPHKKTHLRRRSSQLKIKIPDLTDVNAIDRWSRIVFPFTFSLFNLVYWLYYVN
# human recombinant GABAA α5β3γ2 receptor, sequence (P18507 40-475): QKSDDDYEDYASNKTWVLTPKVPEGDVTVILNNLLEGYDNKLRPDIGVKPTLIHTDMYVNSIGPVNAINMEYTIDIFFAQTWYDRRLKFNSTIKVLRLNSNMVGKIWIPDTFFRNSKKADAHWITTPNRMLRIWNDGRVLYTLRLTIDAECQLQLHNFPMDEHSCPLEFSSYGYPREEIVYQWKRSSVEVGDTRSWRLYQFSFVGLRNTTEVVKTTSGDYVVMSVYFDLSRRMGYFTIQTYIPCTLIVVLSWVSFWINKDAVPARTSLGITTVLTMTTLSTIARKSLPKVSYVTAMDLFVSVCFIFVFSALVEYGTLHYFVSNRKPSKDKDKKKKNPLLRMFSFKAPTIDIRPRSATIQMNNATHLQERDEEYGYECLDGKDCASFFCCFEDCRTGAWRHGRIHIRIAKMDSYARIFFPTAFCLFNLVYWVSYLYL
row,SMILES,Ki
1,"Cc1nnn(-c2ccc(F)cc2)c1COc1ccc2c(n1)CCN(C(=O)Nc1ccccc1Cl)C2 [Example 79, N-(2-chlorophenyl)-2-{[1-(4-fluorophenyl)-4-methyl-1H-1,2,3-triazol-5-yl]methoxy}-5,6,7,8-tetrahydro-1,6-naphthyridine-6-carboxamide]",108 nM
2,"Cc1nnn(-c2ccc(F)cc2)c1COc1ccc2c(n1)CCN(C(=O)[C@@H]1CCC(=O)N1C)C2 [Example 40, (5S)-5-(2-{[1-(4-fluorophenyl)-4-methyl-1H-1,2,3-triazol-5-yl]methoxy}-5,6,7,8-tetrahydro-1,6-naphthyridine-6-carbonyl)-1-methylpyrrolidin-2-one]",56 nM
3,"COCC(=O)N1CCc2nc(OCc3c(C)nnn3-c3ccc(Cl)cc3)ccc2C1 [Example 42, 1-(2-{[1-(4-chlorophenyl)-4-methyl-1H-1,2,3-triazol-5-yl]methoxy}-5,6,7,8-tetrahydro-1,6-naphthyridin-6-yl)-2-methoxyethan-1-one]",13 nM
4,"Cn1nnc(-c2ccc(F)cc2)c1COc1ccc2c(n1)CN(C(=O)C1CCCOC1)C2 (stereo not drawn) [Example 74, 4-(4-fluorophenyl)-1-methyl-5-({[6-(oxane-3-carbonyl)-5H,6H,7H-pyrrolo[3,4-b]pyridin-2-yl]oxy}methyl)-1H-1,2,3-triazole]",46 nM
5,"Cc1nnn(-c2ccc(F)cc2)c1COc1ccc2c(n1)CN(C(=O)c1ccccn1)C2 [Example 66, 2-(2-{[1-(4-fluorophenyl)-4-methyl-1H-1,2,3-triazol-5-yl]methoxy}-5H,6H,7H-pyrrolo[3,4-b]pyridine-6-carbonyl)pyridine]",59 nM
6,"CC(=O)N1Cc2ccc(OCc3c(C)nnn3-c3ccc(Cl)cc3)nc2C1 [Example 60, 1-(2-{[1-(4-chlorophenyl)-4-methyl-1H-1,2,3-triazol-5-yl]methoxy}-5,7-dihydro-6H-pyrrolo[3,4-b]pyridin-6-yl)ethanone]",1.2 nM
7,"Cc1nnn(-c2ccc(F)cc2)c1COc1ccc2c(n1)CN(C(=O)C1CCOCC1)C2 [Example 55, 1-(4-fluorophenyl)-4-methyl-5-({[6-(oxane-4-carbonyl)-5H,6H,7H-pyrrolo[3,4-b]pyridin-2-yl]oxy}methyl)-1H-1,2,3-triazole]",13 nM
8,"Cc1nnn(-c2ccc(F)cc2)c1COc1ccc2c(n1)CCN(C(=O)C(C)C)C2 [Example 22, 1-(2-{[1-(4-fluorophenyl)-4-methyl-1H-1,2,3-triazol-5-yl]methoxy}-5,6,7,8-tetrahydro-1,6-naphthyridin-6-yl)-2-methylpropan-1-one]",57 nM
9,"Cc1nnn(-c2ccc(F)cc2)c1COc1ccc2c(n1)CN(C(=O)C1CCC1)C2 [Example 57, 5-[({6-cyclobutanecarbonyl-5H,6H,7H-pyrrolo[3,4-b]pyridin-2-yl}oxy)methyl]-1-(4-fluorophenyl)-4-methyl-1H-1,2,3-triazole]",14 nM
10,"CC(=O)N1CCc2nc(OCc3c(C)nnn3-c3ccc(Cl)cc3)ccc2C1 [Example 36, 1-(2-{[1-(4-chlorophenyl)-4-methyl-1H-1,2,3-triazol-5-yl]methoxy}-5,6,7,8-tetrahydro-1,6-naphthyridin-6-yl)ethan-1-one]",9.8 nM
11,"Cc1nnn(-c2ccc(F)cc2)c1COc1ccc2c(n1)CCN(C(=O)[C@H]1CCC(=O)N1C)C2 [Example 41, (5R)-5-(2-{[1-(4-fluorophenyl)-4-methyl-1H-1,2,3-triazol-5-yl]methoxy}-5,6,7,8-tetrahydro-1,6-naphthyridine-6-carbonyl)-1-methylpyrrolidin-2-one]",67 nM
12,"Cc1onc(-c2ccc(F)cc2)c1COc1ccc2c(n1)CCN(C(=O)NC1CCOC1)C2 (stereo not drawn) [Example 86, 2-{[3-(4-fluorophenyl)-5-methyl-1,2-oxazol-4-yl]methoxy}-N-(oxolan-3-yl)-5,6,7,8-tetrahydro-1,6-naphthyridine-6-carboxamide]",6.5 nM
13,"Cc1nnn(-c2ccc(F)cc2)c1COc1ccc2c(n1)CCN(C(=O)c1cccc(Cl)c1)C2 [Example 27, 6-(3-chlorobenzoyl)-2-{[1-(4-fluorophenyl)-4-methyl-1H-1,2,3-triazol-5-yl]methoxy}-5,6,7,8-tetrahydro-1,6-naphthyridine]",137 nM
14,"Cc1onc(-c2ccc(F)cc2)c1COc1ccc2c(n1)CCN(C(=O)N1CCCC1)C2 [Example 84, 2-{[3-(4-fluorophenyl)-5-methyl-1,2-oxazol-4-yl]methoxy}-6-(pyrrolidine-1-carbonyl)-5,6,7,8-tetrahydro-1,6-naphthyridine]",8.9 nM
15,"Cc1nnn(-c2ccc(F)cc2)c1COc1ccc2c(n1)CCN(C(=O)C1CC(=O)N(C(C)C)C1)C2 (stereo not drawn) [Example 44, 4-(2-{[1-(4-fluorophenyl)-4-methyl-1H-1,2,3-triazol-5-yl]methoxy}-5,6,7,8-tetrahydro-1,6-naphthyridine-6-carbonyl)-1-(propan-2-yl)pyrrolidin-2-one]",54 nM
16,"Cc1nnn(-c2ccc(F)cc2)c1COc1ccc2c(n1)CCN(C(=O)c1ccc(C(F)(F)F)nc1)C2 [Example 37, 2-{[1-(4-fluorophenyl)-4-methyl-1H-1,2,3-triazol-5-yl]methoxy}-6-[6-(trifluoromethyl)pyridine-3-carbonyl]-5,6,7,8-tetrahydro-1,6-naphthyridine]",69 nM
17,"Cn1nnc(-c2ccc(F)cc2)c1COc1ccc2c(n1)CN(C(=O)CF)C2 [Example 70, 2-fluoro-1-(2-{[4-(4-fluorophenyl)-1-methyl-1H-1,2,3-triazol-5-yl]methoxy}-5,7-dihydro-6H-pyrrolo[3,4-b]pyridin-6-yl)ethanone]",9.2 nM
18,"Cc1nnn(-c2ccc(F)cc2)c1COc1ccc2c(n1)CN(C(=O)C1CCCOC1)C2 (stereo not drawn) [Example 63, 1-(4-fluorophenyl)-4-methyl-5-({[6-(oxane-3-carbonyl)-5H,6H,7H-pyrrolo[3,4-b]pyridin-2-yl]oxy}methyl)-1H-1,2,3-triazole]",9.5 nM
19,"Cc1nnn(-c2ccc(F)cc2)c1COc1ccc2c(n1)CCN(C(=O)C1CC1)C2 [Example 19, 6-cyclopropanecarbonyl-2-{[1-(4-fluorophenyl)-4-methyl-1H-1,2,3-triazol-5-yl]methoxy}-5,6,7,8-tetrahydro-1,6-naphthyridine]",49 nM
20,"Cc1nnn(-c2ccc(Cl)cc2)c1COc1ccc2c(n1)CCN(C(=O)c1ccncc1)C2 [Example 33, 2-{[1-(4-chlorophenyl)-4-methyl-1H-1,2,3-triazol-5-yl]methoxy}-6-(pyridine-4-carbonyl)-5,6,7,8-tetrahydro-1,6-naphthyridine]",14 nM
21,"CCC(=O)N1CCc2nc(OCc3c(C)nnn3-c3ccc(F)cc3)ccc2C1 [Example 24, 1-(2-{[1-(4-fluorophenyl)-4-methyl-1H-1,2,3-triazol-5-yl]methoxy}-5,6,7,8-tetrahydro-1,6-naphthyridin-6-yl)propan-1-one]",46 nM
22,"Cc1onc(-c2ccc(F)cc2)c1COc1ccc2c(n1)CN(C(=O)CS(C)(=O)=O)C2 [Example 49, 1-(2-{[3-(4-fluorophenyl)-5-methyl-1,2-oxazol-4-yl]methoxy}-5H,6H,7H-pyrrolo[3,4-b]pyridin-6-yl)-2-methanesulfonylethan-1-one]",1.2 nM
23,"Cc1nnn(-c2ccc(F)cc2)c1COc1ccc2c(n1)CCN(C(=O)Nc1ccc(Cl)cc1)C2 [Example 81, N-(4-chlorophenyl)-2-{[1-(4-fluorophenyl)-4-methyl-1H-1,2,3-triazol-5-yl]methoxy}-5,6,7,8-tetrahydro-1,6-naphthyridine-6-carboxamide]",37 nM
24,"COC1CCC(C(=O)N2CCc3nc(OCc4c(C)nnn4-c4ccc(F)cc4)ccc3C2)CC1 (stereo not drawn) [Example 35, 2-{[1-(4-fluorophenyl)-4-methyl-1H-1,2,3-triazol-5-yl]methoxy}-6-(4-methoxycyclohexanecarbonyl)-5,6,7,8-tetrahydro-1,6-naphthyridine]",71 nM
25,"CC(=O)N1Cc2ccc(OCc3c(-c4ccc(Cl)cc4)nnn3C)nc2C1 [Example 68, 1-(2-{[4-(4-chlorophenyl)-1-methyl-1H-1,2,3-triazol-5-yl]methoxy}-5,7-dihydro-6H-pyrrolo[3,4-b]pyridin-6-yl)ethanone]",7.5 nM
26,"Cc1nnn(-c2ccc(F)cc2)c1COc1ccc2c(n1)CN(C(=O)CF)C2 [Example 54, 2-fluoro-1-(2-{[1-(4-fluorophenyl)-4-methyl-1H-1,2,3-triazol-5-yl]methoxy}-5,7-dihydro-6H-pyrrolo[3,4-b]pyridin-6-yl)ethanone]",5.3 nM
27,"Cc1nnn(-c2ccc(F)cc2)c1COc1ccc2c(n1)CCN(C(=O)c1cccnc1)C2 [Example 39, 2-{[1-(4-fluorophenyl)-4-methyl-1H-1,2,3-triazol-5-yl]methoxy}-6-(pyridine-3-carbonyl)-5,6,7,8-tetrahydro-1,6-naphthyridine]",24 nM
